For the assay, the target named is T1, HCV NS3/4A protease complex, BMS strain (UniProt P27958, species not given/STRAIN_BMS).
T1 construct: said of H77 and J4L6S, not expressly of BMS; fused on or other part: A three-lysine solubilising tail at the NS4A C-terminus and purification on Ni-NTA are described for the H77 and J4L6S constructs
The experiment in a line: FRET peptide assay to monitor HCV NS3/4A proteolytic activity (BMS strain). It is filed as biochemical, HCV genotype 1a. The text has this: HCV NS3 protease complexes, derived from the BMS strain, H77 strain or J4L6S strain, were generated, as described below. These purified recombinant proteins were generated for use in a homogeneous assay (see below) to provide an indication of how effective compounds of the present disclosure would be in inhibiting HCV NS3 proteolytic activity.
Serum from an HCV-infected patient was obtained from Dr. T. Wright, San Francisco Hospital. An engineered full-length cDNA (compliment deoxyribonucleic acid) template of the HCV genome (BMS strain) was constructed from DNA fragments obtained by reverse transcription-PCR (RT-PCR) of serum RNA (ribonucleic acid) and using primers selected on the basis of homology between other genotype 1a strains. From the determination of the entire genome sequence, a genotype 1a was assigned to the HCV isolate according to the classification of Simmonds et al. (See P Simmonds, K A Rose, S Graham, S W Chan, F McOmish, B C Dow, E A Follett, P L Yap and H Marsden, J. Clin. Microbiol., 31(6), 1493-1503 (1993)). […] The infectious clones, H77 (1a genotype) and J4L6S (1b genotype) were obtained from R. Purcell (NIH) and the sequences are published in Genbank (AAB67036, see Yanagi, M., Purcell, R. H., Emerson, S. U. and Bukh, J. Proc. Natl. Acad. Sci. U.S.A. 94(16), 8738-8743 (1997); AF054247, see Yanagi, M., St Claire, M., Shapiro, M., Emerson, S. U., Purcell, R. H. and Bukh, J, Virology 244 (1), 161-172. (1998)).
NS3/4A protease complex-containing fractions were pooled and loaded on a desalting column Superdex-S200 pre-equilibrated with buffer D (25 mM HEPES, pH 7.5, 20% glycerol, 300 mM NaCl, 0.2% Triton X-100, 10 mM βME). Sample was loaded at a flow rate of 1 mL/min. NS3/4A protease complex-containing fractions were pooled and concentrated to approximately 0.5 mg/ml. The purity of the NS3/4A protease complexes, derived from the BMS, H77 and J4L6S strains, were judged to be greater than 90% by SDS-PAGE and mass spectrometry analyses. The enzyme was stored at −80° C., thawed on ice and diluted prior to use in assay buffer.
The purpose of this in vitro assay was to measure the inhibition of HCV NS3 protease complexes, derived from the BMS strain, H77 strain or J4L6S strain, as described above, by compounds of the present disclosure. This assay provides an indication of how effective compounds of the present disclosure would be in inhibiting HCV NS3 proteolytic activity.
In order to monitor HCV NS3/4A protease activity, an NS3/4A peptide substrate was used. The substrate was RET S1 (Resonance Energy Transfer Depsipeptide Substrate; AnaSpec, Inc. cat #22991) (FRET peptide), described by Taliani et al. in Anal. Biochem. 240(2):60-67 (1996). The sequence of this peptide is loosely based on the NS4A/NS4B natural cleavage site for the HCV NS3 protease except there is an ester linkage rather than an amide bond at the cleavage site. The peptide also contains a fluorescence donor, EDANS, near one end of the peptide and an acceptor, DABCYL, near the other end. The fluorescence of the peptide is quenched by […] resonance energy transfer (RET) between the donor and the acceptor, but as the NS3 protease cleaves the peptide the products are released from RET quenching and the fluorescence of the donor becomes apparent.
The peptide substrate was incubated with one of the three recombinant NS3/4A protease complexes, in the absence or presence of a compound of the present disclosure. The inhibitory effects of a compound were determined by monitoring the formation of fluorescent reaction product in real time using a Cytofluor Series 4000.
Assay buffer: 50 mM HEPES, pH 7.5; 0.15M NaCl; 0.1% Triton; 15% Glycerol; 10 mM βME. Substrate: 2 μM final concentration (from a 2 mM stock solution in DMSO stored at −20° C.). HCV NS3/4A protease type 1a (1b), 2-3 nM final concentration (from a 5 μM stock solution in 25 mM HEPES, pH 7.5, 20% glycerol, 300 mM NaCl, 0.2% Triton-X100, 10 mM βME). […]

Like-named read-outs stand apart in the source and are kept apart here.

T1 sequence (P27958 1027-1657, change not shown, one chain of several): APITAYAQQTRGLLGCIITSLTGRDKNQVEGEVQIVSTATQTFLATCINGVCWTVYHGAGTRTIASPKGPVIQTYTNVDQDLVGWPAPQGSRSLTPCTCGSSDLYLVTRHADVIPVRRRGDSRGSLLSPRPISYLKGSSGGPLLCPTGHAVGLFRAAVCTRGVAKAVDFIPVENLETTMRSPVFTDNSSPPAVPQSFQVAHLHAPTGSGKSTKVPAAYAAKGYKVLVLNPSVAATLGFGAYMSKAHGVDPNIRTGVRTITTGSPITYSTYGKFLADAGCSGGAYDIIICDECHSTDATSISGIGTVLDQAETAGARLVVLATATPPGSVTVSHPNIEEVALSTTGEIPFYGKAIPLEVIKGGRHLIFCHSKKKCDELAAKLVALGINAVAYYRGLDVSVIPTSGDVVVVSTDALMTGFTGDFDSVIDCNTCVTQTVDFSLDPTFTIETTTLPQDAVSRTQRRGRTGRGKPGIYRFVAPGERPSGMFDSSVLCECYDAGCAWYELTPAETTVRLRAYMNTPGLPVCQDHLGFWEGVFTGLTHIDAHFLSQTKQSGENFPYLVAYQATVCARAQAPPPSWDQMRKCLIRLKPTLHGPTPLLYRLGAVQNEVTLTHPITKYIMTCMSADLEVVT

As for `C=C[C@@H]1C[C@]1(NC(=O)[C@@H]1C[C@@](O)(c2ccc(-c3ccccc3)cc2)CN1C(=O)[C@@H](NC(=O)OC(C)(C)C)C(C)(C)C)C(=O)NS(=O)(=O)C1CC1` [Compound 3], the IC50 by setting is: (BMS strain, read-out: IC50 against the NS3/4A BMS strain in the enzyme assay) 4 nM; (NS3/4A BMS strain, read-out: Activity Range (IC50)) 1 to 100 nM.

For the origin of these results see patent US7592336B2, “Hepatitis C virus inhibitors” (Bristol-Myers Squibb Company, priority 2005, dated 2009).
